Experimental data as given in PubChem BioAssay (NCI).
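96-well plates; 48 h exposure; 5 concentrations. Endpoints by linear interpolation between flanking doses. Not reached: highest tested concentration assigned. TGI denotes the concentration required for complete inhibition of growth.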

Legend:
Assay in all cases: NCI-60 cell line screen, 48 h
PC-3 prostate = tested on: PC-3 prostate
UACC-257 melanoma = tested on: UACC-257 melanoma
TK-10 renal = tested on: TK-10 renal
MOLT-4 leukemia = tested on: MOLT-4 leukemia
M14 melanoma = tested on: M14 melanoma
786-0 renal = tested on: 786-0 renal
HCT-116 colon = tested on: HCT-116 colon
CCRF-CEM leukemia = tested on: CCRF-CEM leukemia
MDA-N = tested on: MDA-N
DU-145 prostate = tested on: DU-145 prostate
U251 CNS = tested on: U251 CNS
K-562 leukemia = tested on: K-562 leukemia
HCT-15 colon = tested on: HCT-15 colon
HS 578T breast = tested on: HS 578T breast
SR leukemia = tested on: SR leukemia
MDA-MB-231 breast = tested on: MDA-MB-231 breast
A498 renal = tested on: A498 renal
OVCAR-3 ovarian = tested on: OVCAR-3 ovarian
SNB-19 CNS = tested on: SNB-19 CNS
OVCAR-5 ovarian = tested on: OVCAR-5 ovarian
HOP-92 NSCLC = tested on: HOP-92 NSCLC
SF-295 CNS = tested on: SF-295 CNS
MDA-MB-435 = tested on: MDA-MB-435
UO-31 renal = tested on: UO-31 renal
SK-MEL-5 melanoma = tested on: SK-MEL-5 melanoma
LOX IMVI melanoma = tested on: LOX IMVI melanoma
MALME-3M melanoma = tested on: MALME-3M melanoma
MCF7 breast = tested on: MCF7 breast
NCI-H23 lung = tested on: NCI-H23 lung
HOP-62 NSCLC = tested on: HOP-62 NSCLC
IGROV1 ovarian = tested on: IGROV1 ovarian
OVCAR-8 ovarian = tested on: OVCAR-8 ovarian
COLO 205 colon = tested on: COLO 205 colon
NCI-H226 lung = tested on: NCI-H226 lung
SN12C renal = tested on: SN12C renal
A549 NSCLC = tested on: A549 NSCLC
SNB-75 CNS = tested on: SNB-75 CNS
CAKI-1 renal = tested on: CAKI-1 renal
NCI-H522 lung = tested on: NCI-H522 lung
BT-549 breast = tested on: BT-549 breast
SF-539 CNS = tested on: SF-539 CNS
HCC-2998 colon = tested on: HCC-2998 colon
UACC-62 melanoma = tested on: UACC-62 melanoma
HT29 colon = tested on: HT29 colon
KM12 colon = tested on: KM12 colon
OVCAR-4 ovarian = tested on: OVCAR-4 ovarian
EKVX NSCLC = tested on: EKVX NSCLC
NCI/ADR-RES ovarian = tested on: NCI/ADR-RES ovarian
SW-620 colon = tested on: SW-620 colon
ACHN renal = tested on: ACHN renal
SK-OV-3 ovarian = tested on: SK-OV-3 ovarian
NCI-H460 lung = tested on: NCI-H460 lung
SK-MEL-28 melanoma = tested on: SK-MEL-28 melanoma
SF-268 CNS = tested on: SF-268 CNS
T-47D breast = tested on: T-47D breast
RXF 393 renal = tested on: RXF 393 renal
SK-MEL-2 melanoma = tested on: SK-MEL-2 melanoma
HL-60(TB) leukemia = tested on: HL-60(TB) leukemia
RPMI-8226 leukemia = tested on: RPMI-8226 leukemia

Compound: c1ccc2c(Nc3ncco3)cccc2c1
- TGI (PC-3 prostate): > 10 µM
- TGI (UACC-257 melanoma): > 10 µM
- TGI (TK-10 renal): > 10 µM
- TGI (MOLT-4 leukemia): > 10 µM
- TGI (M14 melanoma): > 10 µM
- TGI (786-0 renal): > 10 µM
- TGI (HCT-116 colon): > 10 µM
- TGI (CCRF-CEM leukemia): > 10 µM
- TGI (MDA-N): > 10 µM
- TGI (DU-145 prostate): > 10 µM
- TGI (U251 CNS): > 10 µM
- TGI (K-562 leukemia): > 10 µM
- TGI (HCT-15 colon): > 10 µM
- TGI (HS 578T breast): > 10 µM
- TGI (SR leukemia): > 10 µM
- TGI (MDA-MB-231 breast): > 10 µM
- TGI (A498 renal): > 10 µM
- TGI (OVCAR-3 ovarian): > 10 µM
- TGI (SNB-19 CNS): > 10 µM
- TGI (OVCAR-5 ovarian): > 10 µM
- TGI (HOP-92 NSCLC): > 10 µM
- TGI (SF-295 CNS): > 10 µM
- TGI (MDA-MB-435): > 10 µM
- TGI (UO-31 renal): > 10 µM
- TGI (SK-MEL-5 melanoma): > 10 µM
- TGI (LOX IMVI melanoma): > 10 µM
- TGI (MALME-3M melanoma): > 10 µM
- TGI (MCF7 breast): > 10 µM
- TGI (NCI-H23 lung): > 10 µM
- TGI (HOP-62 NSCLC): > 10 µM
- TGI (IGROV1 ovarian): > 10 µM
- TGI (OVCAR-8 ovarian): > 10 µM
- TGI (COLO 205 colon): > 10 µM
- TGI (NCI-H226 lung): > 10 µM
- TGI (SN12C renal): > 10 µM
- TGI (A549 NSCLC): > 10 µM
- TGI (SNB-75 CNS): > 10 µM
- TGI (CAKI-1 renal): > 10 µM
- TGI (NCI-H522 lung): > 10 µM
- TGI (BT-549 breast): > 10 µM
- TGI (SF-539 CNS): > 10 µM
- TGI (HCC-2998 colon): > 10 µM
- TGI (UACC-62 melanoma): > 10 µM
- TGI (HT29 colon): > 10 µM
- TGI (KM12 colon): > 10 µM
- TGI (OVCAR-4 ovarian): > 10 µM
- TGI (EKVX NSCLC): > 10 µM
- TGI (NCI/ADR-RES ovarian): > 10 µM
- TGI (SW-620 colon): > 10 µM
- TGI (ACHN renal): > 10 µM
- TGI (SK-OV-3 ovarian): > 10 µM
- TGI (NCI-H460 lung): > 10 µM
- TGI (SK-MEL-28 melanoma): > 10 µM
- TGI (SF-268 CNS): > 10 µM
- TGI (T-47D breast): > 10 µM

Compound: c1cc2cc3c4c5c(cc6ccc7cc8cc9c%10c8c8c7c6c5c8c5c%10c(c1C9N1CCOCCOCCOCCOCCOCC1)c2c45)C3 (configuration not stated)
- TGI (PC-3 prostate): > 100 µM
- TGI (UACC-257 melanoma): > 100 µM
- TGI (TK-10 renal): > 100 µM
- TGI (MOLT-4 leukemia): > 100 µM
- TGI (M14 melanoma): > 100 µM
- TGI (786-0 renal): > 100 µM
- TGI (HCT-116 colon): > 100 µM
- TGI (CCRF-CEM leukemia): > 100 µM
- TGI (MDA-N): > 100 µM
- TGI (DU-145 prostate): > 100 µM
- TGI (RXF 393 renal): > 100 µM
- TGI (U251 CNS): > 100 µM
- TGI (K-562 leukemia): > 100 µM
- TGI (HCT-15 colon): > 100 µM
- TGI (SK-MEL-2 melanoma): > 100 µM
- TGI (HS 578T breast): > 100 µM
- TGI (SR leukemia): > 100 µM
- TGI (MDA-MB-231 breast): > 100 µM
- TGI (OVCAR-3 ovarian): > 100 µM
- TGI (SNB-19 CNS): > 100 µM
- TGI (OVCAR-5 ovarian): > 100 µM
- TGI (HOP-92 NSCLC): > 100 µM
- TGI (SF-295 CNS): > 100 µM
- TGI (MDA-MB-435): > 100 µM
- TGI (HL-60(TB) leukemia): > 100 µM
- TGI (UO-31 renal): > 100 µM
- TGI (SK-MEL-5 melanoma): > 100 µM
- TGI (LOX IMVI melanoma): > 100 µM
- TGI (RPMI-8226 leukemia): > 100 µM
- TGI (MALME-3M melanoma): > 100 µM
- TGI (MCF7 breast): > 100 µM
- TGI (NCI-H23 lung): > 100 µM
- TGI (HOP-62 NSCLC): > 100 µM
- TGI (IGROV1 ovarian): > 100 µM
- TGI (OVCAR-8 ovarian): > 100 µM
- TGI (COLO 205 colon): > 100 µM
- TGI (NCI-H226 lung): > 100 µM
- TGI (SN12C renal): > 100 µM
- TGI (A549 NSCLC): > 100 µM
- TGI (SNB-75 CNS): > 100 µM
- TGI (NCI-H522 lung): > 100 µM
- TGI (BT-549 breast): > 100 µM
- TGI (SF-539 CNS): > 100 µM
- TGI (HCC-2998 colon): > 100 µM
- TGI (UACC-62 melanoma): > 100 µM
- TGI (HT29 colon): > 100 µM
- TGI (KM12 colon): > 100 µM
- TGI (OVCAR-4 ovarian): > 100 µM
- TGI (EKVX NSCLC): > 100 µM
- TGI (NCI/ADR-RES ovarian): > 100 µM
- TGI (SW-620 colon): > 100 µM
- TGI (ACHN renal): > 100 µM
- TGI (SK-OV-3 ovarian): > 100 µM
- TGI (NCI-H460 lung): > 100 µM
- TGI (SK-MEL-28 melanoma): > 100 µM
- TGI (SF-268 CNS): > 100 µM
- TGI (T-47D breast): > 100 µM
